# Measurements published in article PMC12475274, “Harnessing indole scaffolds to identify small-molecule IRE1α inhibitors modulating XBP1 mRNA splicing” (Nature Communications, 2025).
# Where “and” joins values, the source holds several entries; their conditions need not be identical. Identical values can stand only once. Like-named read-outs stand apart in the source and are kept apart here.
# Legend:
# [1] = target: T1, phosphorylated IRE1α (p-IRE1α) (Homo sapiens, UniProt O75460); experiment: FRET-based IRE1α RNase activity assay, phosphorylated IRE1α; assay type: biochemical; conditions: FRET assay
# T1 construct: Human IRE1α kinase and RNase domain (residues 547–977) was subcloned into pLIB plasmid; His tag (with TEV cleavage site) (N, cleaved yes); made in house; host or cells: Sf9 insect cells, baculovirus (Bac-to-Bac)
# T1 sequence (O75460 547-977): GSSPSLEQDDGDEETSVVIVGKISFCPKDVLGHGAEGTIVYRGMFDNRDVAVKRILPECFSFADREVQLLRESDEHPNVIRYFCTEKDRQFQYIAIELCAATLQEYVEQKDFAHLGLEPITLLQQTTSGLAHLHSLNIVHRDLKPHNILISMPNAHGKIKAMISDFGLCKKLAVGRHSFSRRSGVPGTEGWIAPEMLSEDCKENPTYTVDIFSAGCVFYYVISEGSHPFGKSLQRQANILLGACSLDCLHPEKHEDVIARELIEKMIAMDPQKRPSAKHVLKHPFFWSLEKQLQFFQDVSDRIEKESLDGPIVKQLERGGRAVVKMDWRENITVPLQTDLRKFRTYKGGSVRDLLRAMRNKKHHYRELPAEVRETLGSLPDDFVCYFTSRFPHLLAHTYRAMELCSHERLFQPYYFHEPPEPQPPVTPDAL
# Procedure: (§1) Human IRE1α kinase and RNase domain (residues 547–977) was subcloned into pLIB plasmid with a His tag and TEV cleavage site, and expressed using Bac-to-Bac expression system. The primers used are listed in Supplementary Table S3. The protein purification was performed following established procedures. Briefly, Sf9 cells were infected with baculovirus and incubated at 27 °C 110 rpm for 72 h. The cells were collected by centrifugation at 4000 × g for 15 min and the cell pellet was resuspended in lysis buffer (50 mM HEPES pH 7.5, 300 mM NaCl, 10% glycerol, 1 mM MgCl2, 1 mM TCEP, 5 mM imidazole), then supplemented with 1:10,000 benzonase (Sigma, E1014), 1 tablet/25 mL […]™ Protease Inhibitor Cocktail tablets (Sigma, S8830) and 1 mM PMSF before lysed by sonication at 4 °C. […] The protein elution was incubated with TEV protease to remove His tag at 4 °C overnight. Then the sample was diluted 1:6 in buffer (50 mM HEPES pH 7.5, 1 mM TCEP, 5% glycerol) and loaded onto a 5 mL pre-packaged Q HP anion exchange column (Cytiva, HiTrap Q HP) pre-equilibrated with QA buffer (50 mM HEPES pH 7.5, 50 mM NaCl, 1 mM TCEP, 5% glycerol). The unphosphorylated and phosphorylated protein was separated by eluting the protein with a very shallow gradient with 0-30% buffer QB (50 mM HEPES pH 7.5, 1 M NaCl, 1 mM TCEP, 5% glycerol) over 80 CV. Different peaks were collected separately and verified by LC-MS. The fully phosphorylated fraction was collected and further purified by size exclusion chromatography (Cytiva, HiLoad 16/600 Superdex 200 pg,) with SEC buffer (25 mM HEPES pH 7.5, 250 mM NaCl, 1 mM TCEP, 10% glycerol) and fractioned as monomeric peak. The rest protein fraction from the Q HP anion exchange column was incubated with Lambda protein phosphatase (New England BioLabs, P0753S) overnight at 4 °C, the dephosphorylation was confirmed by LC-MS. The unphosphorylated protein was further purified by size exclusion chromatography with the SEC buffer described above. The purified phosphorylated (p-IRE1α) and dephosphorylated (IRE1α) protein aliquots were stored at −80 °C for future usage.
# (§2) The dual-labeled RNA substrate with a FAM at 5’ and the BHQ-1 at 3’ containing the XBP1 sequence (5′FAM-[…]-3′BHQ1) was purchased from Integrated DNA Technologies (IDT). The FRET-based IRE1α RNase activity assay was carried out in reaction buffer containing 20 mM HEPES pH 7.5, 50 mM KOAc, 1 mM MgOAc2, 1 mM DTT, 0.05% v/v TritonX-100, at a total reaction volume of 20 μL in a 384-well black plate (4514, Corning). For unphosphorylated IRE1α (IRE1α), a final concentration of 40 nM IRE1α protein and 100 nM RNA substrate was used. For phosphorylated IRE1 (p-IRE1α), a final concentration of 4 nM p-IRE1α protein and 200 nM RNA substrate was used. The indicated compound and IRE1α protein were incubated for 30 min at room temperature before the substrate was added to the reaction. The plate was then kinetically read over one hour at room temperature using a TECAN Spark plate reader. The measurement was carried out using the fluorescence top reading mode at the excitation wavelength of 485 nm and the emission wavelength of 535 nm with a 10 nm excitation and emission bandwidth. The linear part of the reaction curve was adopted and fitted with sample linear regression to obtain the slope, and the slope was adopted to reflect the reaction rate. The inhibition % was calculated by using the equation: inhibition% = 100 × (slope of DMSO control – slope of the sample)/(slope of DMSO control – slope of blank control), DMSO control: DMSO with protein and RNA substrate; Blank control: DMSO with RNA substrate. The IC50 values were calculated using the concentration-response model in GraphPad Prism 9.
# [2] = target: T2, dephosphorylated IRE1α (547–977) (Homo sapiens, UniProt O75460); experiment: FRET-based IRE1α RNase activity assay, dephosphorylated IRE1α; assay type: biochemical; conditions: for IC50: FRET assay
# T2 construct: Human IRE1α kinase and RNase domain (residues 547–977) was subcloned into pLIB plasmid; His tag (with TEV cleavage site) (N, cleaved yes); made in house; host or cells: Sf9 insect cells, baculovirus (Bac-to-Bac)
# T2 sequence (O75460 547-977): as above
# Procedure: as §1
# as §2, with “9. […]” for “9.”
# [3] = RNase activity, mean (± SEM), read-out: p-IRE1α IC50
# [4] = RNase activity, mean (± SEM), read-out: IRE1α IC50
# [5] = source data, unit from Fig. 3, read-out: p-IRE1a IC50, individual replicates (n1-n4)
# [6] = source data, unit from Fig. 3 / sheet Fig. 2b, read-out: IRE1a IC50, individual replicates (n1-n4)
Structure (SMILES),"IC50 [1, 3]","IC50 [2, 4] [µM]","IC50 [1, 5]","IC50 [2, 6]",reduction in IRE1α inhibition relative to IA64 ([2]; FRET IC50)
Cc1c(CCC(=O)O)c2cc(-c3ccc(C(F)(F)F)cc3)ccc2n1C(=O)c1ccccc1 [IA145],43.2 µM,13.4,40.7 µM and 46.9 µM and 42.1 µM,14.1 µM and 14.2 µM and 11.9 µM,–
Cc1c(CCC(=O)O)c2cc(OC(F)(F)F)ccc2n1C(=O)c1ccccc1 [IA148],0.94 µM,0.57 ± 0.36,0.986 µM and 0.798 µM and 1.02 µM,0.524 µM and 0.238 µM and 0.957 µM,~ 19 fold
Cc1c(CCC(=O)O)c2cc(-c3cccc(C(=O)O)c3)ccc2n1C(=O)c1ccccc1 [IA149],8.81 µM and 8.82 µM,1.01 ± 0.27,6.8 µM and 11.6 µM and 8.05 µM,0.895 µM and 0.824 µM and 1.32 µM,–
Cc1c(CCC(=O)O)c2cc(-c3ccc(C(N)=O)cc3)ccc2n1C(=O)c1ccccc1 [IA152],43.1 µM,12.1,46.9 µM and 49.8 µM and 32.5 µM,10.8 µM and 12.5 µM and 13 µM,–

# More lines, now with the values ahead:
"IC50 [1, 3]","IC50 [2, 4] [µM]","IC50 [1, 5]","IC50 [2, 6]",reduction in IRE1α inhibition relative to IA64 ([2]; FRET IC50),Structure (SMILES)
2.03 µM,1.27,–,–,–,Cc1c(CCC(=O)O)c2cc(-c3ccoc3)ccc2n1C(=O)c1ccccc1 [IA138]
7.56 µM,2.97,1.97 µM and 10.1 µM and 10.6 µM,2.31 µM and 3.81 µM and 2.78 µM,–,Cc1c(CCC(=O)O)c2cc(-c3cccs3)ccc2n1C(=O)c1ccccc1 [IA140]
4.68 µM,1.61,4.81 µM and 5.54 µM and 3.68 µM,2.69 µM and 1.1 µM and 1.04 µM,–,Cc1noc(C)c1-c1ccc2c(c1)c(CCC(=O)O)c(C)n2C(=O)c1ccccc1 [IA142]
39.4 µM,14.1,40.5 µM and 47.1 µM and 30.6 µM,19.6 µM and 14 µM and 8.76 µM,–,COc1ncc(-c2ccc3c(c2)c(CCC(=O)O)c(C)n3C(=O)c2ccccc2)c(OC)n1 [IA143]
6.65 µM,1.21 ± 0.82,7.28 µM and 8.07 µM and 4.59 µM,2.15 µM and 0.81 µM and 0.672 µM,–,Cc1c(CCC(=O)O)c2cc(-c3cccc(N)c3)ccc2n1C(=O)c1ccccc1 [IA146]
